Measurements as given in patent US11453703B2, “Heterotandem bicyclic peptide complexes” (BicycleTX Limited, priority 2018, dated 2022).

Tests used:
[1] = target: T1, CD137 (Homo sapiens, UniProt Q07011); assay: CD137 reporter assay, co-culture with EphA2 tumour cells; assay type: cell-based; design: host or cells: Jurkat reporter cells; conditions: tumour target EphA2, co-culture with SC-OV-3, 6 h
Procedure, shortened: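 Jurkat CD137 reporter cells co-cultured with tumour cells and serially diluted test articles in RPMI-1640 + 1% FBS, 6 h at 37 °C, 5% CO2. Luminescence read after Bio-Glo; fold change over cells-only background fitted log(agonist) vs response for EC50 (nM) and maximal fold induction.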

[2] = target: T1, CD137; assay: CD137 Biacore (SPR) binding assay; design: purchased R&D systems; conditions: biotinylated human CD137, 25° C.
Protocol: Biacore experiments were performed to determine ka (M^−1s^−1), kd (s^−1), KD (nM) values of heterotandem peptides binding to human CD137 protein. […] The protein was desalted to remove uncoupled biotin using spin columns into PBS.
For analysis of peptide binding, a Biacore T200 or a Biacore 3000 instrument was used with a XanTec CMD500D chip. Streptavidin was immobilized on the chip using standard amine-coupling chemistry at 25° C. with HBS-N (10 mM HEPES, 0.15 M NaCl, pH 7.4) as the running buffer. Briefly, the carboxymethyl dextran surface was activated with a 7 min injection of a 1:1 ratio of 0.4 M 1-ethyl-3-(3-dimethylaminopropyl) carbodiimide hydrochloride (EDC)/0.1 M N-hydroxy succinimide (NHS) at a flow rate of 10 μl/min. For capture of streptavidin, the protein was diluted to 0.2 mg/ml in 10 mM sodium acetate (pH 4.5) and captured by injecting 120 μl of onto the activated chip surface. Residual activated groups were blocked with a 7 min injection of 1 M ethanolamine (pH 8.5) and biotinylated CD137 captured to a level of 270-1500 RU. Buffer was changed to PBS/0.05% Tween 20 and a dilution series of the peptides was prepared in this buffer with a final DMSO concentration of 0.5%. The top peptide concentration was 500 nM with 6 further 2-fold or 3-fold dilutions. The SPR analysis was run at 25° C. at a flow rate of 90 μl/min with 60 seconds association and 900 seconds dissociation. After each cycle a regeneration step (10 μl of 10 mM glycine pH 2) was employed. Data were corrected for DMSO excluded volume effects as needed. All data were double-referenced for blank injections and reference surface using standard processing procedures and data processing and kinetic fitting were performed using Scrubber software, version 2.0c (BioLogic Software). Data were fitted using simple 1:1 binding model allowing for mass transport effects where appropriate.

[3] = target: human EphA2 protein (Homo sapiens, UniProt P29317); assay: EphA2 Biacore (SPR) binding assay; conditions: biotinylated human EphA2, 25° C.
Protocol: Biacore experiments were performed to determine ka (M^−1s^−1), kd (s^−1), KD (nM) values of heterotandem peptides binding to human EphA2 protein.
EphA2 were biotinylated with EZ-Link™ Sulfo-NHS-LC-Biotin for 1 hour in 4 mM sodium acetate, 100 mM NaCl, pH 5.4 with a 3× molar excess of biotin over protein. The degree of labelling was determined using a Fluorescence Biotin Quantification Kit (Thermo) after dialysis of the reaction mixture into PBS. For analysis of peptide binding, a Biacore T200 instrument was used with a XanTec CMD500D chip. Streptavidin was immobilized on the chip using standard amine-coupling chemistry at 25° C. with HBS-N (10 mM HEPES, 0.15 M NaCl, pH 7.4) as the running buffer. Briefly, the carboxymethyl dextran surface was activated with a 7 min injection of a 1:1 ratio of 0.4 M 1-ethyl-3-(3-dimethylaminopropyl) carbodiimide hydrochloride (EDC)/0.1 M N-hydroxy succinimide (NHS) at a flow rate of 10 it/min. For capture of streptavidin, the protein was diluted to 0.2 mg/ml in 10 mM sodium acetate (pH 4.5) and captured by injecting 120 μl onto the activated chip surface. Residual activated groups were blocked with a 7 min injection of 1 M ethanolamine (pH 8.5):HBS-N (1:1). Buffer was changed to PBS/0.05% Tween 20 and biotinylated EphA2 was captured to a level of 500-1500 RU using a dilution of protein to 0.2 μM in buffer. A dilution series of the peptides was prepared in this buffer with a final DMSO concentration of 0.5% with a top peptide concentration was 50 or 100 nM and 6 further 2-fold dilutions. The SPR analysis was run at 25° C. at a flow rate of 90 μl/min with 60 seconds association and 900-1200 seconds dissociation. Data were corrected for DMSO excluded volume effects. All data were double-referenced for blank injections and reference surface using standard processing procedures and data processing and kinetic fitting were performed using Scrubber software, version 2.0c (BioLogic Software). Data were fitted using simple 1:1 binding model allowing for mass transport effects where appropriate.

Sequence of human EphA2 protein (P29317 24-976): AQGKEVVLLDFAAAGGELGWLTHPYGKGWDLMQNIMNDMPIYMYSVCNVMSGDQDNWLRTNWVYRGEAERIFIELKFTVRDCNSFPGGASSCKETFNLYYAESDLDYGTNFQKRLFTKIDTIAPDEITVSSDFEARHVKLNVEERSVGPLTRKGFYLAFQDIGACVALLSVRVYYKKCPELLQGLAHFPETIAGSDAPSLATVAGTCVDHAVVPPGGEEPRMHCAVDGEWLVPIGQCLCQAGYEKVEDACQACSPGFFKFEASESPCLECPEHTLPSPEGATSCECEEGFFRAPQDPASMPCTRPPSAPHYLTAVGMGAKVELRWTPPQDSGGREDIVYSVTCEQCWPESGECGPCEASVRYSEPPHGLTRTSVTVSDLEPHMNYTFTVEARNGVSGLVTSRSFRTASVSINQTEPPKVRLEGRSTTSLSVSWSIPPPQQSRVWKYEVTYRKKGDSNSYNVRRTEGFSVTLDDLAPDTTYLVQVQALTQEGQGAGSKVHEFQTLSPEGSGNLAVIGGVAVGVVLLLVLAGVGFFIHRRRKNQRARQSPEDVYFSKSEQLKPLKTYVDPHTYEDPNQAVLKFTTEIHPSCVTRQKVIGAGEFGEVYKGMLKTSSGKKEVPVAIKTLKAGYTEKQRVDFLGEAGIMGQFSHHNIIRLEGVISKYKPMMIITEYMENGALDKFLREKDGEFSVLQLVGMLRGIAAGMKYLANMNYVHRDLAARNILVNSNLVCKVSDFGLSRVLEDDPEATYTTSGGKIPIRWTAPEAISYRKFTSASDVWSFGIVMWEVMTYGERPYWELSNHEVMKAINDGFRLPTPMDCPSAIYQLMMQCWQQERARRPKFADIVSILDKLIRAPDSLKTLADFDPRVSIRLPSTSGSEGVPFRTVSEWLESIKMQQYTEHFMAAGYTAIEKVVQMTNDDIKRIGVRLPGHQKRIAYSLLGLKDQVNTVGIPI
T1 sequence (Q07011 24-255): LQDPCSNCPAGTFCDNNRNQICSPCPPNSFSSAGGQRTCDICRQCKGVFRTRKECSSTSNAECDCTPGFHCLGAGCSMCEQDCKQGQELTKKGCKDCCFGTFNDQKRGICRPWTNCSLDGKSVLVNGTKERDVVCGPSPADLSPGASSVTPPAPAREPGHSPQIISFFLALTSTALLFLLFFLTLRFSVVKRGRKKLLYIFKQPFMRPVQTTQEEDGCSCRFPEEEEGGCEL

Compound	EC50 [1] [nM]	Fold Induction over Background [1] [fold]	Kd [2] [nM]	Kd [3] [nM]
CCCC[C@@H]1NC(=O)[C@H](Cc2ccc(O)cc2)NC(=O)[C@@H]2CCCN2C(=O)[C@H](CC(=O)O)NC(=O)[C@H](C)NC(=O)[C@H](Cc2ccccc2)NC(=O)[C@@H]2CSCCC(=O)N3CN(CN(C3)C(=O)CCSC[C@@H](C(=O)N[C@@H](CNC(=O)CCc3cn(CCCNC(=O)CN(C)C(=O)CN(C)C(=O)CN(C)C(=O)CN(C)C(=O)CN(C)C(=O)CN(C)C(=O)CN(C)C(=O)CN(C)C(=O)CN(C)C(=O)CN(C)C(=O)CN(C)C(=O)CN(C)C(=O)CN(C)C(=O)CN(C)C(=O)CN(C)C(=O)COCCOCCOCCOCCOCCNC(=O)NCCC(=O)N(C)CC(=O)N(C)CC(=O)N(C)CC(=O)N(C)CC(=O)N(C)CC(=O)N(C)CC(=O)N(C)CC(=O)N(C)CC(=O)N(C)CC(=O)N(C)CC(=O)N[C@@H](C)C(=O)N[C@@H](CCCCNC(=N)N)C(=O)N[C@@H](CC(=O)O)C(=O)N[C@H]4CSCCC(=O)N5CN6CN(C5)C(=O)CCSC[C@H](NC(=O)[C@H](CC(C)C)NC(=O)[C@@H]5CCCN5C(=O)[C@H](CC(N)=O)NC(=O)[C@H](C(C)C)NC(=O)[C@H](CC(C)C)NC(=O)[C@@H]5C[C@@H](O)CN5C4=O)C(=O)N[C@@H](CC(C)C)C(=O)N[C@@H](Cc4c[nH]cn4)C(=O)N4CCC[C@H]4C(=O)N[C@H](CC(=O)O)C(=O)N[C@@H](Cc4c[nH]c5ccccc45)C(=O)N[C@@H](CCCCNC(=N)N)C(=O)N[C@H](C(N)=O)CSCCC6=O)nn3)C(N)=O)NC1=O)C(=O)CCSC[C@H](NC(=O)[C@H](C)NC(C)=O)C(=O)N[C@@H]([C@@H](C)CC)C(=O)N[C@@H](CCC(=O)O)C(=O)N[C@@H](CCC(=O)O)C(=O)NCC(=O)N[C@@H](CCC(N)=O)C(=O)N[C@@H](Cc1ccc(O)cc1)C(=O)N2 [BCY9657]	9	26	256	1.1
CCCC[C@@H]1NC(=O)[C@H](Cc2ccc(O)cc2)NC(=O)[C@@H]2CCCN2C(=O)[C@H](CC(=O)O)NC(=O)[C@H](C)NC(=O)[C@H](Cc2ccccc2)NC(=O)[C@@H]2CSCCC(=O)N3CN(CN(C3)C(=O)CCSC[C@@H](C(=O)N[C@@H](CNC(=O)CCc3cn(CCCNC(=O)CN(C)C(=O)CN(C)C(=O)CN(C)C(=O)CN(C)C(=O)CN(C)C(=O)COCCOCCOCCOCCOCCNC(=O)NCCC(=O)N(C)CC(=O)N(C)CC(=O)N(C)CC(=O)N(C)CC(=O)N(C)CC(=O)N(C)CC(=O)N(C)CC(=O)N(C)CC(=O)N(C)CC(=O)N(C)CC(=O)N[C@@H](C)C(=O)N[C@@H](CCCCNC(=N)N)C(=O)N[C@@H](CC(=O)O)C(=O)N[C@H]4CSCCC(=O)N5CN6CN(C5)C(=O)CCSC[C@H](NC(=O)[C@H](CC(C)C)NC(=O)[C@@H]5CCCN5C(=O)[C@H](CC(N)=O)NC(=O)[C@H](C(C)C)NC(=O)[C@H](CC(C)C)NC(=O)[C@@H]5C[C@@H](O)CN5C4=O)C(=O)N[C@@H](CC(C)C)C(=O)N[C@@H](Cc4c[nH]cn4)C(=O)N4CCC[C@H]4C(=O)N[C@H](CC(=O)O)C(=O)N[C@@H](Cc4c[nH]c5ccccc45)C(=O)N[C@@H](CCCCNC(=N)N)C(=O)N[C@H](C(N)=O)CSCCC6=O)nn3)C(N)=O)NC1=O)C(=O)CCSC[C@H](NC(=O)[C@H](C)NC(C)=O)C(=O)N[C@@H]([C@@H](C)CC)C(=O)N[C@@H](CCC(=O)O)C(=O)N[C@@H](CCC(=O)O)C(=O)NCC(=O)N[C@@H](CCC(N)=O)C(=O)N[C@@H](Cc1ccc(O)cc1)C(=O)N2 [BCY9658]	6.2	11	152	1.9
CCCC[C@@H]1NC(=O)[C@H](Cc2ccc(O)cc2)NC(=O)[C@@H]2CCCN2C(=O)[C@H](CC(=O)O)NC(=O)[C@H](C)NC(=O)[C@H](Cc2ccccc2)NC(=O)[C@@H]2CSCCC(=O)N3CN(CN(C3)C(=O)CCSC[C@@H](C(=O)N[C@@H](CNC(=O)CCc3cn(CCOCCOCCOCCOCCOCCNC(=O)NCCC(=O)N(C)CC(=O)N(C)CC(=O)N(C)CC(=O)N(C)CC(=O)N(C)CC(=O)N(C)CC(=O)N(C)CC(=O)N(C)CC(=O)N(C)CC(=O)N(C)CC(=O)N[C@@H](C)C(=O)N[C@@H](CCCCNC(=N)N)C(=O)N[C@@H](CC(=O)O)C(=O)N[C@H]4CSCCC(=O)N5CN6CN(C5)C(=O)CCSC[C@H](NC(=O)[C@H](CC(C)C)NC(=O)[C@@H]5CCCN5C(=O)[C@H](CC(N)=O)NC(=O)[C@H](C(C)C)NC(=O)[C@H](CC(C)C)NC(=O)[C@@H]5C[C@@H](O)CN5C4=O)C(=O)N[C@@H](CC(C)C)C(=O)N[C@@H](Cc4c[nH]cn4)C(=O)N4CCC[C@H]4C(=O)N[C@H](CC(=O)O)C(=O)N[C@@H](Cc4c[nH]c5ccccc45)C(=O)N[C@@H](CCCCNC(=N)N)C(=O)N[C@H](C(N)=O)CSCCC6=O)nn3)C(N)=O)NC1=O)C(=O)CCSC[C@H](NC(=O)[C@H](C)NC(C)=O)C(=O)N[C@@H]([C@@H](C)CC)C(=O)N[C@@H](CCC(=O)O)C(=O)N[C@@H](CCC(=O)O)C(=O)NCC(=O)N[C@@H](CCC(N)=O)C(=O)N[C@@H](Cc1ccc(O)cc1)C(=O)N2 [BCY9659]	9.9	7	88.1	1.03
